Assay results: ChEMBL document CHEMBL3882731, “Novel sulfonaminoquinoline Hepcidin antagonists” (2014)

Each compound was assayed against T1, Ferroportin (Homo sapiens, UniProt Q9NP59) (assay: Antagonist activity at C-terminal halo-tag fused human ferroportin expressed in MDCK cells assessed as inhibition of hepcidin-induced ferroportin internalization after overnight incubation by Draq5 staining-based fluorescence assay).
T1 sequence (Q9NP59 whole entry): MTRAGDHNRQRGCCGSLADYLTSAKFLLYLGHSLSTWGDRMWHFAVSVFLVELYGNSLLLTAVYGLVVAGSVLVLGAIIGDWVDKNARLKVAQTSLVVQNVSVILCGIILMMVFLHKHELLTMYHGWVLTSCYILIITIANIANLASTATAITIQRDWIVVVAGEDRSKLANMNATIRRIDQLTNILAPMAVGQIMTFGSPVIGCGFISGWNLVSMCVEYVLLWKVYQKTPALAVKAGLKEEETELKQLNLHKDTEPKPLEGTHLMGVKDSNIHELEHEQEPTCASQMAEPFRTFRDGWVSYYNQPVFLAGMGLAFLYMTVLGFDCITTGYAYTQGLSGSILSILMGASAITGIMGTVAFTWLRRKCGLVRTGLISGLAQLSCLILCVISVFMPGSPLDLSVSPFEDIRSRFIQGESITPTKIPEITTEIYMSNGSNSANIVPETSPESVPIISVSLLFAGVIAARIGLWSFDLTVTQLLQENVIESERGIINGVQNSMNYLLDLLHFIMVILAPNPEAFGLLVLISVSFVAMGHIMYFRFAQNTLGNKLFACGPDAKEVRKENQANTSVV
Assay type: cell-based
Work on `Cc1cccc(Cl)c1S(=O)(=O)Nc1cccc2cccnc12` yielded an IC50 of 100 µM. In the case of `Cc1ccccc1S(=O)(=O)Nc1cccc2cccnc12`, the IC50 is reported as 100 µM. `O=S(=O)(Nc1c(Cl)ccc2cccnc12)c1ccccc1` was tested, and the IC50 was 100 µM. In the case of `Cc1cc(C)c(S(=O)(=O)Nc2c(Cl)cc(Cl)c3cccnc23)c(C)c1`, the IC50 is reported as 100 µM. Compound `COc1cc(NS(=O)(=O)Nc2c(F)cccc2F)c2ncccc2c1` has an IC50 of 100 µM. `Cc1ccc2ccc3c(c2n1)NS(=O)(=O)c1ccccc1-3` was tested, and the IC50 was 100 µM. Work on `Cc1ccc2cccc(NS(=O)(=O)c3ccccc3)c2n1` yielded an IC50 of 100 µM. `COc1ccc(S(=O)(=O)Nc2cccc3cccnc23)cc1` gave an IC50 of 100 µM. In the case of `COc1cc(NS(=O)(=O)c2ccc(Cl)cc2Cl)c2ncccc2c1`, the IC50 is reported as 100 µM. `Nc1cc(C(F)(F)F)ccc1S(=O)(=O)Nc1ccc(Cl)c2cccnc12` showed an IC50 of 100 µM. `Cc1c(Cl)cccc1NS(=O)(=O)Nc1ccc(Cl)c2cccnc12` gave an IC50 of 100 µM. Work on `Cc1ccc2cccc(NS(=O)(=O)c3ccccc3N)c2n1` yielded an IC50 of 100 µM. For `CN1c2c(ccc3cccnc23)-c2ccccc2S1(=O)=O`, the IC50 was 100 µM. With `O=[N+]([O-])c1cc(C(F)(F)F)ccc1S(=O)(=O)Nc1cccc2cccnc12` the IC50 was 100 µM. `CCOc1cc(NS(=O)(=O)c2ccccc2)c2ncccc2c1` showed an IC50 of 100 µM. `CC(C)c1ccc2cccnc2c1NS(=O)(=O)c1ccccc1` gave an IC50 of 100 µM. `COc1ccccc1S(=O)(=O)Nc1cccc2cccnc12` showed an IC50 of 100 µM. In the case of `Cc1ccc2cccnc2c1NS(=O)(=O)c1ccccc1`, the IC50 is reported as 100 µM. Compound `COc1ccc(S(=O)(=O)Nc2cccc3ccc(C)nc23)c(N)c1` has an IC50 of 100 µM. In the case of `CCc1ccc2cccnc2c1NS(=O)(=O)c1ccccc1`, the IC50 is reported as 100 µM. Work on `Cc1cc(NS(=O)(=O)c2ccccc2)c2ncccc2c1C` yielded an IC50 of 100 µM. `CC(=O)Nc1cc(C(F)(F)F)ccc1S(=O)(=O)Nc1cccc2cccnc12` was tested, and the IC50 was 100 µM. In the case of `Cc1ccc(S(=O)(=O)Nc2cccc3cc(C)cnc23)c(N)c1`, the IC50 is reported as 100 µM. Compound `Cc1cnc2c(NS(=O)(=O)c3ccc(Cl)cc3Cl)cccc2c1` has an IC50 of 100 µM. For `Cc1cc(NS(=O)(=O)c2ccccc2)c2ncccc2c1Cl`, the IC50 was 100 µM. `O=S(=O)(Nc1cccc2ccc(Cl)nc12)c1ccccc1` gave an IC50 of 100 µM. Compound `COc1cc2cccnc2c2c1-c1ccccc1S(=O)(=O)N2` has an IC50 of 100 µM. `COC(=O)c1ccnc2c(NS(=O)(=O)c3ccccc3)cccc12` was tested, and the IC50 was 50 µM. Work on `O=S(=O)(Nc1c(O)ccc2cccnc12)c1ccccc1` yielded an IC50 of 100 µM. In the case of `COc1cc(NS(=O)(=O)Nc2cccc(Cl)c2C)c2ncccc2c1`, the IC50 is reported as 100 µM. Work on `COc1ccnc2c(NS(=O)(=O)c3ccccc3)cccc12` yielded an IC50 of 100 µM. `O=S(=O)(Nc1ccc(Br)c2cccnc12)c1ccccc1` gave an IC50 of 100 µM. `O=S(=O)(Nc1cc(Cl)cc2cccnc12)c1ccccc1` was tested, and the IC50 was 100 µM. In the case of `COc1ccc(S(=O)(=O)Nc2cccc3cccnc23)c(N)c1`, the IC50 is reported as 100 µM. For `COc1ccc2cccnc2c1NS(=O)(=O)c1ccccc1`, the IC50 was 100 µM. Work on `O=S(=O)(Nc1cccc2cccnc12)c1c(Cl)cccc1Cl` yielded an IC50 of 100 µM. `O=S(=O)(Nc1ccc(Cl)c2cccnc12)c1ccc(Cl)cc1Cl` was tested, and the IC50 was 100 µM. Compound `COc1ccnc2c3c(ccc12)-c1ccccc1S(=O)(=O)N3` has an IC50 of 100 µM.
